Measurements as given in ChEMBL document CHEMBL1240510, “Synthesis, stereochemical separation, and biological evaluation of selective inhibitors of human MAO-B: 1-(4-arylthiazol-2-yl)-2-(3-methylcyclohexylidene)hydrazines” (J Med Chem, 2010).

Biological target: T1, Amine oxidase [flavin-containing] A (Homo sapiens, UniProt P21397)
T1 sequence (P21397 whole entry): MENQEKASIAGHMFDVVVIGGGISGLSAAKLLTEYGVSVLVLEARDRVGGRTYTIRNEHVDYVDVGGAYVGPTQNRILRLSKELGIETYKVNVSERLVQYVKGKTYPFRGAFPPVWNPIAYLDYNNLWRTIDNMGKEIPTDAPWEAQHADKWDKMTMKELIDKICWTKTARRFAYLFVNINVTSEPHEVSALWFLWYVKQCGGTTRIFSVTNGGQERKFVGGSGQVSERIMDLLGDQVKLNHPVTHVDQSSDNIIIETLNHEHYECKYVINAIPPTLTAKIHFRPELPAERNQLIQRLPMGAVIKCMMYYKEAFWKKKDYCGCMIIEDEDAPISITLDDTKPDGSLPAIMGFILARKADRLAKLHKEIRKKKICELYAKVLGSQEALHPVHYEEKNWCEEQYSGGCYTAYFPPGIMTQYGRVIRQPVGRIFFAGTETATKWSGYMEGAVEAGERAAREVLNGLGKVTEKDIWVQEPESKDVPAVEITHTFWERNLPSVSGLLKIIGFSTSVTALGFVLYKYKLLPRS
Assay: biochemical
Type: cell-based, BTI-TN-5B1-4

SMILES | IC50 [µM]
CC1CCC/C(=N/Nc2nc(-c3ccccc3)cs2)C1 (centres undefined) | 37.8
C[C@@H]1CCC/C(=N/Nc2nc(-c3ccccc3)cs2)C1 | 38.6
CC1CCC/C(=N/Nc2nc(-c3ccc(Cl)cc3Cl)cs2)C1 (centres undefined) | 43.8
C[C@@H]1CCC/C(=N/Nc2nc(-c3ccc(Cl)cc3Cl)cs2)C1 | 40.6
CC1CCC/C(=N/Nc2nc(-c3ccc(Cl)cc3)cs2)C1 (centres undefined) | 23.1

Further compounds by falling IC50, results first:

IC50 [µM] | SMILES
22.8 | C[C@@H]1CCC/C(=N/Nc2nc(-c3ccc(Cl)cc3)cs2)C1
21.9 | C[C@@H]1CCC/C(=N/Nc2nc(-c3ccc(C#N)cc3)cs2)C1
20.6 | CC1CCC/C(=N/Nc2nc(-c3ccc(C#N)cc3)cs2)C1 (centres undefined)
4.26 | COc1ccc(-c2csc(N/N=C3/CCC[C@@H](C)C3)n2)cc1
